Source: publication PMC11033320, “Activation of p53 signaling and regression of breast and prostate carcinoma cells by spirooxindole-benzimidazole small molecules” (Frontiers in Pharmacology, 2024)

Assays:
[1] = tested on: Ki-67; assay: Immunohistochemical detection of Ki-67 in MDA-MB 231 cells; format: cell-based, human; settings: MDA-MB 231, 72 h; untreated 82.425%
Experimental: (§1) After trypsinization, the untreated and treated MDA-MB231 cells were centrifuged and washed with PBS buffer and then 10% formalin in PBS was added to cell pellets. The fixed cell specimens were dehydrated in ascending grades of alcohol and immersed in xylene for one hour (three times) followed by impregnation in melted paraffin to from solid paraffin blocks. Then a rotator microtome was used to cut each block into 3-5 μm thick sections that were transferred into positively charge slides. Slides were dried at 60-70°C for 1-2 h then dewaxed by immersion in xylene 3 times and rehydrated in descending grading ethanol. After that slides were incubated in 3% H2O2 for 10 min, washed in PBS buffer twice for 3 min and put in 10 mM citrate buffer […] followed by heating for 10-20 min. After cooling and washing in PBS, slides were separately soaked overnight in primary antibodies (anti-Ki-67 and anti-p53). Slides were washed in PBS, covered with biotinylated goat anti-polyvalent secondary antibody for 10 min and then streptavidin peroxidase was added. After 10 min, substrate of secondary antibody (3,3'-diaminobenzidine) was added followed by washing in PBS and placing in hematoxylin bath for 1-4 min then washing in PBS (1 min) and water (3 min). Percentage of immunostained cells was evaluated by imaging analysis cellSens software of phase contrast microscope (Olympus, Japan).

[2] = tested on: p53; assay: Immunohistochemical detection of p53 in MDA-MB 231 cells; format: cell-based, human; settings: MDA-MB 231, 72 h, compared to untreated cells
Experimental: as §1

[3] = tested on: human p53 transcription factor; assay: p53 transcription factor activity assay in MDA-MB 231 cells; format: cell-based; settings: treated MDA-MB 231 cells relative to the untreated cells
Experimental: The relative fold activation of p53 in the treated MDA-MB 231 cells were quantified using human p53 transcription factor activity assay kit (RayBio, USA). Briefly, 100 µl of lysates of the untreated and treated MDA-MB 231 cells were added to p53 probe-coated 96 wells and incubated for 2 h (these oligonucleotides capture the active p53 in cell lysate). After washing for discarding unbound p53, primary antibody was added to bound p53-DNA complex, incubated for 1 h. Each well was washed then peroxidase-conjugated secondary antibody was added and incubated for 1 h. After washing and incubating with substrate for 30 min, the absorbance was measured at 450 nm.

[4] = tested on: NF-κB; assay: Real time PCR NF-κB gene expression in MDA-MB 231 cells; settings: treated MDA-MB 231 cells compared to untreated cells
[5] = tested on: cyclin D; assay: Real time PCR cyclin D gene expression in MDA-MB 231 cells; settings: treated MDA-MB 231 cells compared to untreated cells
[6] = tested on: p21; assay: Real time PCR p21 gene expression in MDA-MB 231 cells; settings: treated MDA-MB 231 cells compared to untreated cells
[7] = tested on: CNS cancer cells (SF-268, SF-295, SF-539, SNB-19, SNB-75, U251); assay: NCI anticancer screening, CNS cancer subpanel; format: cell-based, human
Excerpt: The compound has been processed according to standard method NCI-60 Human Tumor Cell Lines Screen for organic compound at development therapeutic program (DTP). Requests for access to this national resource can be submitted online at: […]

| Structure (SMILES) | Ki-67 level (positive immunostaining cells) [1] | increase of protein level of p53 [2] | fold activation of p53 transcription factor [3] | expression level of NF-κB [4] | expression level of cyclin D [5] | upregulation of p21 expression [6] | growth inhibition in CNS cancer cells [7] |
| --- | --- | --- | --- | --- | --- | --- | --- |
| O=C(c1nc2ccccc2[nH]1)[C@H]1[C@H](c2ccccc2)C2CSCN2[C@]12C(=O)Nc1ccccc12 (mixture of isomers) [Compound 6a, (3S,6′R)-6'-(1H-benzo [d]imidazole-2-carbonyl)-7′-phenyl-3′,6′,7′,7a′-tetrahydro-1′H-spiro [indoline-3.5′-pyrrolo [1,2-c]thiazol]-2-one] | 1.18% | 60.2% | 5.983 ± 0.142 fold | downregulating | downregulating | – | – |
| Cc1ccc([C@@H]2C3CSCN3[C@]3(C(=O)Nc4ccccc43)[C@H]2C(=O)c2nc3ccccc3[nH]2)cc1 (mixture of isomers) [Compound 6d, (3S,6′R)-6'-(1H-Benzo [d]imidazole-2-carbonyl)-7'-(p-tolyl)-3′,6′,7′,7a′-tetrahydro-1′H-spiro [indoline-3.5′-pyrrolo [1,2-c]thiazol]-2-one] | 3.03% | 54.7% | 6.287 ± 0.254 fold | downregulating | downregulating | greater than three times | – |
| O=C(c1nc2ccccc2[nH]1)[C@H]1[C@H](c2ccc(Cl)cc2Cl)C2CSCN2[C@]12C(=O)Nc1ccccc12 (stereo partly drawn) [Compound 6g, (3S,6′R)-6'-(1H-Benzo [d]imidazole-2-carbonyl)-7'-(2,4-dichlorophenyl)-3′,6′,7′,7a′-tetrahydro-1′H-spiro [indoline-3.5′-pyrrolo [1,2-c]thiazol]-2-one] | – | – | – | – | – | – | less than 80% |
| O=C(c1nc2ccccc2[nH]1)[C@H]1[C@H](c2ccc(Br)cc2)C2CSCN2[C@]12C(=O)Nc1ccccc12 (stereo partly drawn) [Compound 6l, (3S,6′R)-6'-(1H-Benzo [d]imidazole-2-carbonyl)-7'-(4-bromophenyl)-3′,6′,7′,7a′-tetrahydro-1′H-spiro [indoline-3.5′-pyrrolo [1,2-c]thiazol]-2-one] | – | – | – | – | – | – | less than 80% |
